Test [1] deals with LNCaP prostate cancer cell. Kind of test: LNCaP cell viability (CellTiter-Glo). Conditions: Homo sapiens, 72 h; LNCaP cell viability, 3 days, CellTiter-Glo; Table 4. It is filed as cell-based. The gist of the method: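 CellTiter-Glo luminescence measured three days after dosing with a 12-point 3-fold compound dilution series. LNCaP cells seeded at 5000/well in RPMI 1640 with 10% FBS; data normalized to untreated controls and IC50 fitted by nonlinear least-squares regression.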
For orientation: Cellular ATP, detected with luciferase, serves as a proxy for viable cell number.

The target of test [2] is P300 (Homo sapiens, UniProt Q09472). Kind of test: percentage of inhibition (degradation) of p300 at 10 nM, Tables 2-4. Format: cell-based. More on the design: LNCaP or 22RV1 cells that express CBP/P300 proteins were treated with GNE-781 or the bivalent compounds; endogenous in cells; host or cells: LNCaP or 22RV1 (not given). Conditions: p300, 10 nM; Table 4; read-out: Degradation (10 nM). The protocol:
Cultured cells or tissue chunks were washed with cold PBS once and lysed in cold RIPA buffer supplemented with protease inhibitors and phosphatase inhibitors (Beyotime Biotechnology). The solutions were then incubated at 4° C. for 30 minutes with gentle agitation to fully lyse cells. Cell lysates were centrifuged at 13,000 rpm for 10 minutes at 4° C. and pellets were discarded. Total protein concentrations in the lysates were determined by BCA assays (Beyotime Biotechnology). Cell lysates were mixed with Laemmli loading buffer to 1 X and heated at 99° C. for 5 min. Proteins were resolved on SDS-PAGE and visualized by chemiluminescence. Images were taken by a ChemiDoc MP Imaging system (Bio-Rad). Protein bands were quantitated using the accompanied software provided by Bio-Rad.

One may read the IC50 as the point on the concentration scale where inhibition reaches its midpoint. A high value points to weaker potency.

Sequence of P300 (Q09472 whole entry): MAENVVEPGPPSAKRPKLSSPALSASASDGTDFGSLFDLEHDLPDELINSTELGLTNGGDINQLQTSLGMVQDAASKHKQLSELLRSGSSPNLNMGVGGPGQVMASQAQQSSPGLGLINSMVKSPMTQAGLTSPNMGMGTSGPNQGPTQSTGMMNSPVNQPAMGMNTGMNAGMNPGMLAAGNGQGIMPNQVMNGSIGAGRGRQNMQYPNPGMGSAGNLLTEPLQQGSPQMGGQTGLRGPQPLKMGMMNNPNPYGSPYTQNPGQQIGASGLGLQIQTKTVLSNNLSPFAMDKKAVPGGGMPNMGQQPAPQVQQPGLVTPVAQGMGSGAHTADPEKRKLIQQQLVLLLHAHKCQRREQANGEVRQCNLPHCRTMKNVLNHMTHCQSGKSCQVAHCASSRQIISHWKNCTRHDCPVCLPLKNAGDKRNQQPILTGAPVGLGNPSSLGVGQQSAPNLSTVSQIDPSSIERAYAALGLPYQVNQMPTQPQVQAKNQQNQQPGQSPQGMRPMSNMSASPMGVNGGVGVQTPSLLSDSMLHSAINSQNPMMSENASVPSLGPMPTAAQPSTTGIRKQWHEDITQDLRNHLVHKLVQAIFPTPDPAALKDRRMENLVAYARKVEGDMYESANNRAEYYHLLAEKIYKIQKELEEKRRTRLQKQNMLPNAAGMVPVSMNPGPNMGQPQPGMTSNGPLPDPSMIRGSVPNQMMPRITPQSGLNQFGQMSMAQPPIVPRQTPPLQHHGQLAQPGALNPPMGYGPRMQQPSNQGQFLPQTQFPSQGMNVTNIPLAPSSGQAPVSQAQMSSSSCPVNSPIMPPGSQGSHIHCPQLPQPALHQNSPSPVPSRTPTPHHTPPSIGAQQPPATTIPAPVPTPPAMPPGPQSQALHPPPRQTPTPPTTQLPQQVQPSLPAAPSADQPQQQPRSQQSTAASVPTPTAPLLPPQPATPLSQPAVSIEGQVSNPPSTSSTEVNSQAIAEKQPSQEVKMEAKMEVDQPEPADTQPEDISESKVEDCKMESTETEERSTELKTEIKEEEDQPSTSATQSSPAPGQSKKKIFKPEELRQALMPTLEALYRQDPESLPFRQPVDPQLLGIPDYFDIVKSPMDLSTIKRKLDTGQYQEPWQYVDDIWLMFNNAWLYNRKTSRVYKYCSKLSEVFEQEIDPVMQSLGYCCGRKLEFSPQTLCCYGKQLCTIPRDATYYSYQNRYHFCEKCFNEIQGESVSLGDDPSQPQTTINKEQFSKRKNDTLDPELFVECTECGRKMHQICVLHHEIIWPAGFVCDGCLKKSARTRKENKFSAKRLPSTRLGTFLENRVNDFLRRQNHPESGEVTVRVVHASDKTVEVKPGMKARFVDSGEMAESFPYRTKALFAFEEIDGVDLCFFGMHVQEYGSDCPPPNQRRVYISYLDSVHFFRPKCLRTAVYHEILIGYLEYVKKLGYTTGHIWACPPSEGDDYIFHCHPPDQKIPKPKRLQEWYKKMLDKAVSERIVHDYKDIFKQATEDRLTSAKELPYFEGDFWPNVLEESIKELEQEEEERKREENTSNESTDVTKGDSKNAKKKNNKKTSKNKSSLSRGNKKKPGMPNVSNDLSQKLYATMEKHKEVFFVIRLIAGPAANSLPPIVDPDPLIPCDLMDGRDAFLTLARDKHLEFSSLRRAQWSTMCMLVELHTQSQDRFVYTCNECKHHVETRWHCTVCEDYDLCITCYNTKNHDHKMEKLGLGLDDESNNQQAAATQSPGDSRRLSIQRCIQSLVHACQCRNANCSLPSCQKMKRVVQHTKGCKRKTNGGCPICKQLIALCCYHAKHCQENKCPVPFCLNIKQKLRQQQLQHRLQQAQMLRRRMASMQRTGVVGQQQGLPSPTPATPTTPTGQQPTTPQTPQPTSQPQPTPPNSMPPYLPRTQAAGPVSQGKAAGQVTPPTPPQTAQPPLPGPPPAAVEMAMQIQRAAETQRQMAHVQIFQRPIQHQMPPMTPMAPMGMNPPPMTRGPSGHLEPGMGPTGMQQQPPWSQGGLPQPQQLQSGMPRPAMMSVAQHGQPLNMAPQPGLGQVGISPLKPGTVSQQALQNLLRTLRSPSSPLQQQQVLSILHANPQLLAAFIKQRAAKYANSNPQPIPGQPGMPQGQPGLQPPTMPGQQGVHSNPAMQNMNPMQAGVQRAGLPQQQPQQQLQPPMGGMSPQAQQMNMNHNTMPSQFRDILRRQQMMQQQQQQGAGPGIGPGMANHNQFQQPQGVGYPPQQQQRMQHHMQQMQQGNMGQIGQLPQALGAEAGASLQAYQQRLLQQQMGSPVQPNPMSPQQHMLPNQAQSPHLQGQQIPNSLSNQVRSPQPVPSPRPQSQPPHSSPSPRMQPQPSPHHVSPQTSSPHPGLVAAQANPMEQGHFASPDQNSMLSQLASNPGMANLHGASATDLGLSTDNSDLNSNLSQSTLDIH

On to `CC(=O)N1CCc2c(c(N3CCCc4cc(-c5cnn(C)c5)c(C(F)F)cc43)nn2C2CCN(CCCN3CCC(CCc4cccc5c4C(=O)N(C4CCC(=O)NC4=O)C5=O)CC3)CC2)C1` (stereo not drawn) [P-190, 4-(2-(1-(3-(4-(5-acetyl-3-(7-(difluoromethyl)-6-(1-methyl-1H-pyrazol-4-yl)-3,4-dihydroquinolin-1(2H)-yl)-4,5,6,7-tetrahydro-1H-pyrazolo[4,3-c]pyridin-1-yl)piperidin-1-yl)propyl)piperidin-4-yl)ethyl)-2-(2,6-dioxopiperidin-3-yl)isoindoline-1,3-dione], for which the half-maximal inhibitory concentration (IC50) in test [1] stood at 41.4 nM. Also, the inhibition at 0.01 µM in test [2] fell in the range of 50 to 80%.

In the case of `CC(=O)N1CCc2c(c(N3CCCc4cc(-c5cnn(C)c5)c(C(F)F)cc43)nn2C2CCN(CCN3CCN(c4cccc5c4C(=O)N(C4CCC(=O)NC4=O)C5=O)CC3)CC2)C1` (stereo not drawn) [P-191, 4-(4-(2-(4-(5-acetyl-3-(7-(difluoromethyl)-6-(1-methyl-1H-pyrazol-4-yl)-3,4-dihydroquinolin-1(2H)-yl)-4,5,6,7-tetrahydro-1H-pyrazolo[4,3-c]pyridin-1-yl)piperidin-1-yl)ethyl)piperazin-1-yl)-2-(2,6-dioxopiperidin-3-yl)isoindoline-1,3-dione], in test [1], the IC50 worked out at 179 nM. In test [2], the inhibition at 0.01 µM is under 20%.

For the compound `CC(=O)N1CCc2c(c(N3CCCc4cc(-c5cnn(C)c5)c(C(F)F)cc43)nn2C2CCN(CCC3CCN(c4cccc5c4C(=O)N(C4CCC(=O)NC4=O)C5=O)CC3)CC2)C1` (stereo not drawn) [P-192, 4-(4-(2-(4-(5-acetyl-3-(7-(difluoromethyl)-6-(1-methyl-1H-pyrazol-4-yl)-3,4-dihydroquinolin-1(2H)-yl)-4,5,6,7-tetrahydro-1H-pyrazolo[4,3-c]pyridin-1-yl)piperidin-1-yl)ethyl)piperidin-1-yl)-2-(2,6-dioxopiperidin-3-yl)isoindoline-1,3-dione], the half-inhibitory concentration (IC50) in test [1] was 10.2 nM. Also, the inhibition at 0.01 µM in test [2] was in the range of 50 to 80%.

In test [1], `CC(=O)N1CCc2c(c(N3CCCc4cc(-c5cnn(C)c5)c(C(F)F)cc43)nn2C2CCN(CCCN3CCC(CNc4cccc5c4C(=O)N(C4CCC(=O)NC4=O)C5=O)CC3)CC2)C1` (stereo not drawn) [P-193, 4-(((1-(3-(4-(5-acetyl-3-(7-(difluoromethyl)-6-(1-methyl-1H-pyrazol-4-yl)-3,4-dihydroquinolin-1(2H)-yl)-4,5,6,7-tetrahydro-1H-pyrazolo[4,3-c]pyridin-1-yl)piperidin-1-yl)propyl)piperidin-4-yl)methyl)amino)-2-(2,6-dioxopiperidin-3-yl)isoindoline-1,3-dione] came in with a concentration for half-maximal inhibition (IC50) of 3.2 nM. Moreover, the inhibition at 0.01 µM in test [2] was over 80%.

`CC(=O)N1CCc2c(c(N3CCCc4cc(-c5cnn(C)c5)c(C(F)F)cc43)nn2C2CCN(Cc3ccc(COc4cccc5c4C(=O)N(C4CCC(=O)NC4=O)C5)cc3)CC2)C1` (stereo not drawn) [P-194, 3-(7-((4-((4-(5-acetyl-3-(7-(difluoromethyl)-6-(1-methyl-1H-pyrazol-4-yl)-3,4-dihydroquinolin-1(2H)-yl)-4,5,6,7-tetrahydro-1H-pyrazolo[4,3-c]pyridin-1-yl)piperidin-1-yl)methyl)benzyl)oxy)-1-oxoisoindolin-2-yl)piperidine-2,6-dione] registered an IC50 in test [1] of 4.9 nM. Besides, in test [2], the inhibition at 0.01 µM is over 80%.

In test [1], `CC(=O)N1CCc2c(c(N3CCCc4cc(-c5cnn(C)c5)c(C(F)F)cc43)nn2C2CCN(Cc3ccc(COc4cccc5c4C(=O)N(C4CCC(=O)NC4=O)C5=O)cc3)CC2)C1` (stereo not drawn) [P-195, 4-((4-((4-(5-acetyl-3-(7-(difluoromethyl)-6-(1-methyl-1H-pyrazol-4-yl)-3,4-dihydroquinolin-1(2H)-yl)-4,5,6,7-tetrahydro-1H-pyrazolo[4,3-c]pyridin-1-yl)piperidin-1-yl)methyl)benzyl)oxy)-2-(2,6-dioxopiperidin-3-yl)isoindoline-1,3-dione] registered an IC50 of 17.6 nM. Besides, the inhibition at 0.01 µM in test [2] lay within 50 to 80%.

For the origin of these results see patent publication US20240100170A1, “CYCLIC-AMP RESPONSE ELEMENT BINDING PROTEIN (CBP) AND/OR ADENOVIRAL E1A BINDING PROTEIN OF 300 KDA (P300) DEGRADATION COMPOUNDS AND METHODS OF USE” (CULLGEN (SHANGHAI), INC., priority 2020, published 2024).
